What all share (type): biochemical
Assay [1] deals with DGAT1 and DGAT2. Nature of the assay: DGAT inhibition (DGAT1 and DGAT2) in rat liver microsomes. As to the method:
(§1) The ability of compounds to inhibit DGAT can be measured as described in Coleman (1992) Methods in Enzymology 209, 98-102.
(§2) The inhibitory activity of sulfamic acid [[2,4,6-tris(1-methylethyl)phenyl]acetyl-2,6-bis(1-methylethyl)phenyl ester against DGAT1, DGAT2 and ACAT was measured in rat and human liver microsomes. DGAT1 and DGAT2 can be distinguished since DGAT2 is not active at high magnesium concentrations (concentrations of 50 mM or higher) whilst DGAT1 retains its activity at high magnesium concentrations.
(§3) The results obtained, expressed as the concentration of inhibitor at which 50% of the enzyme activity is inhibited, i.e. the IC50, are as follows: […]

Assay [2] relates to ACAT. Nature of the assay: ACAT inhibition in rat liver microsomes.
From the text: (§4) The ability of compounds to inhibit ACAT can be measured using an in-vitro test described in Field & Salone (1982) Biochemica et Biophysica, 712, 557-570. The test assesses the ability of a test compound to inhibit the acylation of cholesterol by oleic acid by measuring the amount of radiolabeled cholesterol oleate formed from radiolabeled oleic acid in a tissue preparation containing rat liver microsomes.
as §2
For orientation: Microsomes from liver hold many membrane-bound enzymes, among them those of drug oxidation.

In assay [3] the target is T1, DGAT1 (Homo sapiens, UniProt O75907).
T1 construct: from tissue; host or cells: human liver microsomes
T1 sequence (O75907 1-488): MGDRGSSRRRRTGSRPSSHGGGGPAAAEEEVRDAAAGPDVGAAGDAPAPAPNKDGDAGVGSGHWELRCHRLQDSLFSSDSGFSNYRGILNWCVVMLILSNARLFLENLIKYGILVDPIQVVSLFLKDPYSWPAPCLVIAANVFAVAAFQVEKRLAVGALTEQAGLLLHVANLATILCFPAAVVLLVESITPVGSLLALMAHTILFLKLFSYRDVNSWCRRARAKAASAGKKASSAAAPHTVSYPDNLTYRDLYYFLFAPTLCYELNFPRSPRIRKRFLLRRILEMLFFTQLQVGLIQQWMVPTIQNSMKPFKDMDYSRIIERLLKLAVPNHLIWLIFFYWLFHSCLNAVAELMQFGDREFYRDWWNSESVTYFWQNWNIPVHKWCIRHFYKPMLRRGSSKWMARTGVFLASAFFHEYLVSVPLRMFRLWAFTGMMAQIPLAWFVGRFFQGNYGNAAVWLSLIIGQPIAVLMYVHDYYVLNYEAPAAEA
Nature of the assay: DGAT1 inhibition at 100 mM Mg in human liver microsomes. As to the method:
as §1, §2, §3

For assay [4], the system named is ACAT. The experiment in a line: ACAT inhibition in human liver microsomes.
From the text: as §4, §2

In assay [5] the target is T2, DGAT1 (Rattus norvegicus, UniProt Q9ERM3).
T2 construct: from tissue; host or cells: rat liver microsomes
T2 sequence (Q9ERM3 1-498): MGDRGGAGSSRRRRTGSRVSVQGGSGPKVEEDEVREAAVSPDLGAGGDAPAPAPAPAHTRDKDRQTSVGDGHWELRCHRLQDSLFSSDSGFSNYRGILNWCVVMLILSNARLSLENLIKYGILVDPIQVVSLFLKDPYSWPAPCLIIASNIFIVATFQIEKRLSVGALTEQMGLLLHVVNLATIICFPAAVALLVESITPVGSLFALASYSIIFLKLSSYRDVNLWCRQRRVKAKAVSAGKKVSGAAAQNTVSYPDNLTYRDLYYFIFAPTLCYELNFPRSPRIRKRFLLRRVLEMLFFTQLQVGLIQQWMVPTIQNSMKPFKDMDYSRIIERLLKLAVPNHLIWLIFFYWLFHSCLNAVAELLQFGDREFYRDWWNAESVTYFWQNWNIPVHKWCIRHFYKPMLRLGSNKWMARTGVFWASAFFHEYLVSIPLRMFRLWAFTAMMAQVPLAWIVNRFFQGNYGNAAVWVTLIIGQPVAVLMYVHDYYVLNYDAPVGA
Nature of the assay: DGAT1 inhibition at 100 mM Mg in rat liver microsomes. The protocol: as §1, §2, §3

Assay [6] deals with DGAT1 and DGAT2. Nature of the assay: DGAT inhibition (DGAT1 and DGAT2) in human liver microsomes. As to the method: as §1, §2, §3

Consider 1 compound from patent US20070155832A1, “Use of sulfonamide compounds for the treatment of diabetes and/or obesity” (priority 2003, published 2007).

For the compound `CC(C)c1cc(C(C)C)c(CC(=O)NS(=O)(=O)Oc2c(C(C)C)cccc2C(C)C)c(C(C)C)c1` [sulfamic acid [[2,4,6-tris(1-methylethyl)phenyl]acetyl-2,6-bis(1-methylethyl)phenyl ester], the IC50 – broadly, the concentration at which inhibition is half-maximal – was 3.41 µM with DGAT1 and DGAT2 [1]; 1.03 µM in the assay with ACAT [2]; 3.03 µM against DGAT1 [3]; 5.67 µM with ACAT [4]; 2.28 µM at DGAT1 [5]; 7.95 µM in the assay on DGAT1 and DGAT2 [6].
